Experiments:
[1] = target: CDK6/cyclin D3 (Homo sapiens) (UniProt P30281+Q00534); assay: Inhibition of human CDK6/cyclinD3 at 10 uM after 60 mins by TR-FRET assay; values are per cent of control
[2] = target: Serine/threonine-protein kinase PLK3 (Homo sapiens) (UniProt Q9H4B4); assay: Inhibition of human Plk3 at 10 uM after 60 mins by TR-FRET assay; values are per cent of control
[3] = target: RAF proto-oncogene serine/threonine-protein kinase (Homo sapiens) (UniProt P04049); assay: Inhibition of human c-RAF at 10 uM after 60 mins by TR-FRET assay; values are per cent of control
[4] = test system: Proto-oncogene tyrosine-protein kinase Src (Homo sapiens), P12931 [T341M]; assay: Inhibition of human Src T341M mutant at 10 uM after 60 mins by TR-FRET assay; values are per cent of control
[5] = target: Protein kinase C gamma type (Homo sapiens) (UniProt P05129); assay: Inhibition of human PKCgamma at 10 uM after 60 mins by TR-FRET assay; values are per cent of control
[6] = target: Serine/threonine-protein kinase PAK 6 (Homo sapiens) (UniProt Q9NQU5); assay: Inhibition of human PAK6 at 10 uM after 60 mins by TR-FRET assay; values are per cent of control
Rattus norvegicus = organism: Rattus norvegicus; assay: Inhibition of rat CaMK2 at 10 uM after 60 mins by TR-FRET assay; values are per cent of control
[7] = target: Death-associated protein kinase 2 (Homo sapiens) (UniProt Q9UIK4); assay: Inhibition of human DAPK2 at 10 uM after 60 mins by TR-FRET assay; values are per cent of control
[8] = target: Serine/threonine-protein kinase ULK2 (Homo sapiens) (UniProt Q8IYT8); assay: Inhibition of human ULK2 at 10 uM after 60 mins by TR-FRET assay; values are per cent of control
[9] = target: Dual specificity mitogen-activated protein kinase kinase 1 (Homo sapiens) (UniProt Q02750); assay: Inhibition of human MEK1 at 10 uM after 60 mins by TR-FRET assay; values are per cent of control
[10] = target: Tyrosine-protein kinase Mer (Homo sapiens) (UniProt Q12866); assay: Inhibition of human Mer at 10 uM after 60 mins by TR-FRET assay; values are per cent of control
[11] = target: Protein-tyrosine kinase 2-beta (Homo sapiens) (UniProt Q14289); assay: Inhibition of human Pyk2 at 10 uM after 60 mins by TR-FRET assay; values are per cent of control
[12] = target: Myosin light chain kinase, smooth muscle (Homo sapiens) (UniProt Q15746); assay: Inhibition of human MLCK at 10 uM after 60 mins by TR-FRET assay; values are per cent of control
[13] = target: Homeodomain-interacting protein kinase 3 (Homo sapiens) (UniProt Q9H422); assay: Inhibition of human HIPK3 at 10 uM after 60 mins by TR-FRET assay; values are per cent of control
[14] = target: Mitogen-activated protein kinase 1 (Homo sapiens, UniProt P28482); assay: Inhibition of human MAPK1 at 10 uM after 60 mins by TR-FRET assay; settings: values are per cent of control
[15] = target: RAC-gamma serine/threonine-protein kinase (Homo sapiens) (UniProt Q9Y243); assay: Inhibition of human PKBgamma at 10 uM after 60 mins by TR-FRET assay; values are per cent of control
[16] = target: Casein kinase II (Homo sapiens) (UniProt P67870+P68400+P19784); assay: Inhibition of human CK2 at 10 uM after 60 mins by TR-FRET assay; values are per cent of control
[17] = target: Tyrosine-protein kinase ABL2 (Homo sapiens) (UniProt P42684); assay: Inhibition of human Arg at 10 uM after 60 mins by TR-FRET assay; values are per cent of control
[18] = test system: Angiopoietin-1 receptor (Homo sapiens), Q02763 [Y897S]; assay: Inhibition of human Tie2 Y897S mutant at 10 uM after 60 mins by TR-FRET assay; values are per cent of control
[19] = target: Serine/threonine-protein kinase PAK 3 (Homo sapiens) (UniProt O75914); assay: Inhibition of human PAK3 at 10 uM after 60 mins by TR-FRET assay; values are per cent of control
[20] = target: Fibroblast growth factor receptor 3 (Homo sapiens) (UniProt P22607); assay: Inhibition of human FGFR3 at 10 uM after 60 mins by TR-FRET assay; values are per cent of control
[21] = target: Proto-oncogene tyrosine-protein kinase Src (Homo sapiens) (UniProt P12931); assay: Inhibition of human c-SRC at 10 uM after 60 mins by TR-FRET assay; values are per cent of control
[22] = target: Insulin receptor (Homo sapiens) (UniProt P06213); assay: Inhibition of human IR at 10 uM after 60 mins by TR-FRET assay; values are per cent of control
[23] = target: Serine/threonine-protein kinase PLK1 (Homo sapiens) (UniProt P53350); assay: Inhibition of human Plk1 at 10 uM after 60 mins by TR-FRET assay; values are per cent of control
[24] = target: Serine/threonine-protein kinase tousled-like 2 (Homo sapiens) (UniProt Q86UE8); assay: Inhibition of human TLK2 at 10 uM after 60 mins by TR-FRET assay; values are per cent of control
[25] = target: Cytoplasmic tyrosine-protein kinase BMX (Homo sapiens) (UniProt P51813); assay: Inhibition of human Bmx at 10 uM after 60 mins by TR-FRET assay; values are per cent of control
[26] = target: Ribosomal protein S6 kinase alpha-2 (Homo sapiens) (UniProt Q15349); assay: Inhibition of human Rsk3 at 10 uM after 60 mins by TR-FRET assay; settings: values are per cent of control
[27] = target: Tyrosine-protein kinase CSK (Homo sapiens) (UniProt P41240); assay: Inhibition of human CSK at 10 uM after 60 mins by TR-FRET assay; values are per cent of control

Sequence of RAF proto-oncogene serine/threonine-protein kinase (Homo sapiens) (P04049 whole entry): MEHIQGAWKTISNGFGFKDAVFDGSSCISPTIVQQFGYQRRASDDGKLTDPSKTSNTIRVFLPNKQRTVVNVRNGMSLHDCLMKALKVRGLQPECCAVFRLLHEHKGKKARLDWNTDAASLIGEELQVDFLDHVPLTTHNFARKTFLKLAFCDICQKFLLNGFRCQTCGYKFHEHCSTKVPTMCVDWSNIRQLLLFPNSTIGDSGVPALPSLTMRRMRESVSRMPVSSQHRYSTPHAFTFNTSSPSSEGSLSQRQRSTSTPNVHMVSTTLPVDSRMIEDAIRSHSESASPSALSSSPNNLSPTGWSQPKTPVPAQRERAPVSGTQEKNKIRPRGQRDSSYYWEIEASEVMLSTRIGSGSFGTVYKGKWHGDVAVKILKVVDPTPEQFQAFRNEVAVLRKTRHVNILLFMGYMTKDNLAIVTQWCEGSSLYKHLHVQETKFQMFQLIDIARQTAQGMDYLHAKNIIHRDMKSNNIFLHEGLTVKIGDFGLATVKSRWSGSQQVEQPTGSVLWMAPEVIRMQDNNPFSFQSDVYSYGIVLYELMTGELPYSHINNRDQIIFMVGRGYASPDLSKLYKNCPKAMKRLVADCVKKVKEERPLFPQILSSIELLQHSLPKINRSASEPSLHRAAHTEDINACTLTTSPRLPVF
Sequence of Fibroblast growth factor receptor 3 (Homo sapiens) (P22607 23-806 limits assumed): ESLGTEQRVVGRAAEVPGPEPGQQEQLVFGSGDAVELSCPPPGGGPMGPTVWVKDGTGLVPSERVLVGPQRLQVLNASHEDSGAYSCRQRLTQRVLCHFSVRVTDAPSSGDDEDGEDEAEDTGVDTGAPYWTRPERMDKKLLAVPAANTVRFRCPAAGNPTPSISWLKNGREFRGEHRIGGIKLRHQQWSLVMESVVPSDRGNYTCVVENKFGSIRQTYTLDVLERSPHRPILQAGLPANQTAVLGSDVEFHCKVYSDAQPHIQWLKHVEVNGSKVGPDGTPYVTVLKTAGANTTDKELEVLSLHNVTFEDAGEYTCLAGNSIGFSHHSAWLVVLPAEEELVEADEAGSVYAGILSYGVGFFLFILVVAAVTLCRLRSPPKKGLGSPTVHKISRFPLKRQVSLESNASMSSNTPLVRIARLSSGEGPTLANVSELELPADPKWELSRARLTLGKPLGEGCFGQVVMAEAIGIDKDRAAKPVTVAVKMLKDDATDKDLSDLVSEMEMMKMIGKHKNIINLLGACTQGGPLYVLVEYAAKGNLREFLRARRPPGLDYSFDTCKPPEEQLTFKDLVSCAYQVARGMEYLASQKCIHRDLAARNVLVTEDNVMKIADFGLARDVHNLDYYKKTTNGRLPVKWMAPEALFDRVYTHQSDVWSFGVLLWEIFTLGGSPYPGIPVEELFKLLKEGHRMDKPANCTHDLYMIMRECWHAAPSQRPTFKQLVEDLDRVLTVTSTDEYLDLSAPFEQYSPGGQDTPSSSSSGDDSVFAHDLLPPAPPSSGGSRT
Sequence of Protein-tyrosine kinase 2-beta (Homo sapiens) (Q14289 whole entry, looked up): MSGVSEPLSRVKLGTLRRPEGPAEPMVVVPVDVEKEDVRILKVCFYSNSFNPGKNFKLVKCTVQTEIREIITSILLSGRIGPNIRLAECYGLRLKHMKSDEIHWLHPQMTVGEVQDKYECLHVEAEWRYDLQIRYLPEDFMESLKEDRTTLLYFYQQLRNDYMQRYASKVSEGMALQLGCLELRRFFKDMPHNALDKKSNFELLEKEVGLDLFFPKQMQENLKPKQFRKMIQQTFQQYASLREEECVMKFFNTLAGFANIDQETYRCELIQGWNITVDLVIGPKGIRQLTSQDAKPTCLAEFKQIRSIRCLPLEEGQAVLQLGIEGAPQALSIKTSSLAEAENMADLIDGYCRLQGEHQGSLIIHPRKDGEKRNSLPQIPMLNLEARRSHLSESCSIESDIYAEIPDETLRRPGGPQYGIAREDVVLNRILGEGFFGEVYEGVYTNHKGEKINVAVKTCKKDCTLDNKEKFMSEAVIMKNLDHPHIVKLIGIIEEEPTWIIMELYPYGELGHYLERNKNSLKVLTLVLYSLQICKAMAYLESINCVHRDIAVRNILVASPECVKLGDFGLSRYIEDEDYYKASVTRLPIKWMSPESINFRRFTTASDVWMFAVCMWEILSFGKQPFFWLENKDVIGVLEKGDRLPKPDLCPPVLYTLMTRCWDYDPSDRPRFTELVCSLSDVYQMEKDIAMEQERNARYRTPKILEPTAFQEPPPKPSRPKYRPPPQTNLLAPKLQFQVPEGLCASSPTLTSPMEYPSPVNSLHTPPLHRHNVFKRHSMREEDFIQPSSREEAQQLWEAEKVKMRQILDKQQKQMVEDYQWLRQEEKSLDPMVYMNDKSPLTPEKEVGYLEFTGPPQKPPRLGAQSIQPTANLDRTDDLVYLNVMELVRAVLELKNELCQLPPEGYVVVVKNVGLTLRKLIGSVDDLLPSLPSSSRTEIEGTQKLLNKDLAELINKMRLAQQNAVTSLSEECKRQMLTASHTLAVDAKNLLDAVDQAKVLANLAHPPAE
Sequence of Insulin receptor (Homo sapiens) (P06213 28-758 limits assumed): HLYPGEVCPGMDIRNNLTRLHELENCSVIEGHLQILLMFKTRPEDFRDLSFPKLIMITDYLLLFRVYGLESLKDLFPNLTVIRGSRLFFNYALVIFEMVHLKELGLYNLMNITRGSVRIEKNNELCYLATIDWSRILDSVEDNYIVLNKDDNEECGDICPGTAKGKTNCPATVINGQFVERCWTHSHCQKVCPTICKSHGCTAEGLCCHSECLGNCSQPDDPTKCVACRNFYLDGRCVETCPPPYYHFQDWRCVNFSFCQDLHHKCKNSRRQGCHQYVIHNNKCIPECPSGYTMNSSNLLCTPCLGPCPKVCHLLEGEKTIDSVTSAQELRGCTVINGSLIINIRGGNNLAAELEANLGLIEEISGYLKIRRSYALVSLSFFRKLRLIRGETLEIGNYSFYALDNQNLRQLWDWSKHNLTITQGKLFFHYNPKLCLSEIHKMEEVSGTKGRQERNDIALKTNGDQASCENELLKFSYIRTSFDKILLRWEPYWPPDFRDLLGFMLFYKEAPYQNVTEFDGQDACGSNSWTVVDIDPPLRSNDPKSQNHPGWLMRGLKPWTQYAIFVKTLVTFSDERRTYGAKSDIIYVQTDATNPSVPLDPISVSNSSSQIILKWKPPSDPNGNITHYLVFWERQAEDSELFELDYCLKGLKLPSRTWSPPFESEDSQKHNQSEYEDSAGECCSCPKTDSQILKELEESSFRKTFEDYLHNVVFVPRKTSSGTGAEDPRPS
Sequence of Insulin receptor (Homo sapiens) (P06213 763-1382 limits assumed): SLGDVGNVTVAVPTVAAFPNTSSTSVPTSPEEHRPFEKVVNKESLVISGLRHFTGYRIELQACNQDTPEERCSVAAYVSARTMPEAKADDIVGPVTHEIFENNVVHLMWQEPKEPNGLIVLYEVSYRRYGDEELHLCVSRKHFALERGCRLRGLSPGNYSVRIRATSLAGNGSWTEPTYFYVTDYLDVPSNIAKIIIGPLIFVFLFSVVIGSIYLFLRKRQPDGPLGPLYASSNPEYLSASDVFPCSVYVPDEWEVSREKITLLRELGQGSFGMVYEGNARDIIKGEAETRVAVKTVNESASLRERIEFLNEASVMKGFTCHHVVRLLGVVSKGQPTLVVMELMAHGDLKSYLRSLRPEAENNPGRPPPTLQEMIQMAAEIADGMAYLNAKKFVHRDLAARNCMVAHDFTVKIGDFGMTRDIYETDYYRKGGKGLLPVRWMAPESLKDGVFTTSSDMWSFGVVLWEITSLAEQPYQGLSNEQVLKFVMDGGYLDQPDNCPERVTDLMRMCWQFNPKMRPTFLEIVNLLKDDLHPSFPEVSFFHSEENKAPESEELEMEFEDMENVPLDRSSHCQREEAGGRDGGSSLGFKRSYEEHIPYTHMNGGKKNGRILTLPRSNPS
Sequence of Proto-oncogene tyrosine-protein kinase Src (Homo sapiens), P12931 [T341M] (P12931 whole entry T341M, looked up): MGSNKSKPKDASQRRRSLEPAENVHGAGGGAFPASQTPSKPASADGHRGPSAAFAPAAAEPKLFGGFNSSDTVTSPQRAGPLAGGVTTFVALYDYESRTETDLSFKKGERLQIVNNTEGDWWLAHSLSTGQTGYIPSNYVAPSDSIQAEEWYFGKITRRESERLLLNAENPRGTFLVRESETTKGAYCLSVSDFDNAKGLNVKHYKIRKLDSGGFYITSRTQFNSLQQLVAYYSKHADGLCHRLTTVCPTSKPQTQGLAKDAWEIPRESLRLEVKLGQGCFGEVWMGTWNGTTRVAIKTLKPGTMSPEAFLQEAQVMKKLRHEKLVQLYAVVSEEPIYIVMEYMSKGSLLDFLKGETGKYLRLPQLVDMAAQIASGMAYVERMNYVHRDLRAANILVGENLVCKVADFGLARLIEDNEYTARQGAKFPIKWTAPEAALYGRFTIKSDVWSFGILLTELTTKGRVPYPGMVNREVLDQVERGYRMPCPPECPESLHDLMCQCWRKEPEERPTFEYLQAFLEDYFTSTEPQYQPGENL
Sequence of Serine/threonine-protein kinase PAK 6 (Homo sapiens) (Q9NQU5 whole entry, looked up): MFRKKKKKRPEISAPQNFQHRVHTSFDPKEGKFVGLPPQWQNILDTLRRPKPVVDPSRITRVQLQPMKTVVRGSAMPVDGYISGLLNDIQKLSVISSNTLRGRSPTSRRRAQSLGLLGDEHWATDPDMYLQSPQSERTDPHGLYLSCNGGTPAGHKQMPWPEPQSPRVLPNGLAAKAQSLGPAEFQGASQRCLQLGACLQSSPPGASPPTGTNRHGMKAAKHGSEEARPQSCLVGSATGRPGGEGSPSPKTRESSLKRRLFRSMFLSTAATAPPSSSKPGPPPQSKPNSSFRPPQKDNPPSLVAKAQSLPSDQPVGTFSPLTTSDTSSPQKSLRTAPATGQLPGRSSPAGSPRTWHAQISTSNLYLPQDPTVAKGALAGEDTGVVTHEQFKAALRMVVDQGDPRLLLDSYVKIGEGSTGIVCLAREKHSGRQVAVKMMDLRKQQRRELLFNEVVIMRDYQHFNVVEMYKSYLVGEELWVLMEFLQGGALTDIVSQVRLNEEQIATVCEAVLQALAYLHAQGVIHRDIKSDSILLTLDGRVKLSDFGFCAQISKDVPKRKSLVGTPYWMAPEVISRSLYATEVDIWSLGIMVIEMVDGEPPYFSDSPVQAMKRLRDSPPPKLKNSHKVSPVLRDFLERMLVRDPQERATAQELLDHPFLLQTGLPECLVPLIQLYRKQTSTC

With `S=c1[nH]nc(-c2ccncc2)n1-c1ccc2ccccc2c1` the residual activity [1] was 102%, the residual activity [2] was 106% and the residual activity [3] was 35%. For the same molecule, the residual activity [4] was 113%, the residual activity [5] was 102% and the residual activity [6] was 103%. It also gave a residual activity (Rattus norvegicus) of 110%, a residual activity [7] of 108% and a residual activity [8] of 103%. The residual activity [9] was 110%, the residual activity [10] was 107% and the residual activity [11] was 98%. For the same molecule, the residual activity [12] was 103%, the residual activity [13] was 109% and the residual activity [14] was 109%. The residual activity [15] was 110%, the residual activity [16] was 110% and the residual activity [17] was 109%. For the same molecule, the residual activity [18] was 92%, the residual activity [19] was 99% and the residual activity [20] was 109%. For the same molecule, the residual activity [21] was 93%, the residual activity [22] was 106% and the residual activity [23] was 90%. It also gave a residual activity [24] of 110%, a residual activity [25] of 136% and a residual activity [26] of 90%. It also gave a residual activity [27] of 100%.

— ChEMBL document CHEMBL1641539 (Bioorg Med Chem Lett, 2011)
